Results taken from patent US20220362232A1, “TOPICAL COMPOSITIONS COMPRISING A MACROLIDE IMMUNOSUPPRESSANT” (BAUSCH HEALTH IRELAND LIMITED, priority 2020, published 2022).

How the values were obtained:
[1] = cited from earlier work
[2] = Solubility and stability in alkyl diesters of aliphatic dicarboxylic acids; format: physicochemical

Structure (SMILES) | Solubility in benzyl alcohol, chloroform, acetone, and acetonitrile [1] | Solubility in water [1] | Solubility and stability in alkyl diesters of aliphatic dicarboxylic acids [2] | Solubility in methanol and ethanol ([1]; methanol and ethanol)
CO[C@H]1C[C@@H]2CC[C@@H](C)[C@@](O)(O2)C(=O)C(=O)N2CCCC[C@H]2C(=O)O[C@H]([C@H](C)C[C@@H]2CC[C@@H](O)[C@H](OC)C2)CC(=O)[C@H](C)/C=C(\C)[C@@H](O)[C@@H](OC)C(=O)[C@H](C)C[C@H](C)/C=C/C=C/C=C/1C [Sirolimus] | soluble | insoluble | particularly soluble and stable | 
C=CC[C@@H]1/C=C(\C)C[C@H](C)C[C@H](OC)[C@H]2O[C@@](O)(C(=O)C(=O)N3CCCC[C@H]3C(=O)O[C@H](/C(C)=C/[C@@H]3CC[C@@H](O)[C@H](OC)C3)[C@H](C)[C@@H](O)CC1=O)[C@H](C)C[C@@H]2OC [Tacrolimus] | soluble | insoluble | particularly soluble and stable | 
CC[C@@H]1/C=C(\C)C[C@H](C)C[C@H](OC)[C@H]2O[C@@](O)(C(=O)C(=O)N3CCCC[C@H]3C(=O)O[C@H](/C(C)=C/[C@@H]3CC[C@H](Cl)[C@H](OC)C3)[C@H](C)[C@@H](O)CC1=O)[C@H](C)C[C@@H]2OC [Pimecrolimus] |  | insoluble | particularly soluble and stable | soluble
